Assays:
Format in all cases: in vivo
Abutilon theophrasti = test: Pre-emergence herbicidal action against harmful plants; conditions: application rate 320 g/ha, scored visually after 3 weeks, 100% = plants have died, 0% = like control plants
Excerpt: (§1) Seeds of monocotyledonous and dicotyledonous weed plants and crop plants are laid out in wood-fiber pots in sandy loam and covered with soil. The compounds of the invention, formulated in the form of wettable powders (WP) or as emulsion concentrates (EC), are then applied to the surface of the covering soil in the form of an aqueous suspension or emulsion at a water application rate equating to 600 to 800 I/ha, with addition of 0.2% wetting agent. After the treatment, the pots are placed in a greenhouse and kept under good growth conditions for the trial plants. The damage to the trial plants is scored visually after a trial duration of 3 weeks by comparison with untreated controls (herbicidal activity in percent (%): 100% efficacy=the plants have died, 0% efficacy=like control plants). In this trial, for example, compound no.

Amaranthus retroflexus [1] = test: as above; conditions: application rate 320 g/ha, scored visually after 3 weeks, 100% = plants have died, 0% = like control plants
Excerpt: as §1

Echinochloa crus galli [2] = test: as above; conditions: application rate 320 g/ha, scored visually after 3 weeks, 100% = plants have died, 0% = like control plants
Excerpt: as §1

Matricaria inodora [3] = test: as above; conditions: application rate 320 g/ha, scored visually after 3 weeks, 100% = plants have died, 0% = like control plants
Excerpt: as §1

Setaria viridis [4] = test: as above; conditions: application rate 320 g/ha, scored visually after 3 weeks, 100% = plants have died, 0% = like control plants
Excerpt: as §1

Stellaria media [5] = test: as above; conditions: application rate 320 g/ha, scored visually after 3 weeks, 100% = plants have died, 0% = like control plants
Excerpt: as §1

Veronica persica [6] = test: as above; conditions: application rate 320 g/ha, scored visually after 3 weeks, 100% = plants have died, 0% = like control plants
Excerpt: as §1

Viola tricolor [7] = test: as above; conditions: application rate 320 g/ha, scored visually after 3 weeks, 100% = plants have died, 0% = like control plants
Excerpt: as §1

Amaranthus retroflexus [8] = test: Post-emergence herbicidal action against harmful plants; conditions: application rate 80 g/ha, scored visually after about 3 weeks, 100% = plants have died, 0% = like control plants
Description: (§2) Seeds of monocotyledonous and dicotyledonous weed and crop plants are laid out in sandy loam in wood-fiber pots, covered with soil and cultivated in a greenhouse under good growth conditions. 2 to 3 weeks after sowing, the trial plants are treated at the one-leaf stage. The compounds of the invention, formulated in the form of wettable powders (WP) or as emulsion concentrates (EC), are then sprayed onto the green parts of the plants in the form of an aqueous suspension or emulsion at a water application rate equating to 600 to 800 I/ha, with addition of 0.2% wetting agent. After the trial plants have been left to stand in a greenhouse under optimal growth conditions for about 3 weeks, the efficacy of the formulations is scored visually in comparison to untreated controls (herbicidal action in percent (%): 100% efficacy=the plants have died, 0% efficacy=like control plants). In this trial, for example, compound no.

Echinochloa crus galli [9] = test: as above; conditions: application rate 80 g/ha, scored visually after about 3 weeks, 100% = plants have died, 0% = like control plants
Description: as §2

Ipomoea purpurea = test: as above; conditions: application rate 80 g/ha, scored visually after about 3 weeks, 100% = plants have died, 0% = like control plants
Description: as §2

Matricaria inodora [10] = test: as above; conditions: application rate 80 g/ha, scored visually after about 3 weeks, 100% = plants have died, 0% = like control plants
Description: as §2

Setaria viridis [11] = test: as above; conditions: application rate 80 g/ha, scored visually after about 3 weeks, 100% = plants have died, 0% = like control plants
Description: as §2

Stellaria media [12] = test: as above; conditions: application rate 80 g/ha, scored visually after about 3 weeks, 100% = plants have died, 0% = like control plants
Description: as §2

Veronica persica [13] = test: as above; conditions: application rate 80 g/ha, scored visually after about 3 weeks, 100% = plants have died, 0% = like control plants
Description: as §2

Viola tricolor [14] = test: as above; conditions: application rate 80 g/ha, scored visually after about 3 weeks, 100% = plants have died, 0% = like control plants
Description: as §2

Cc1cnn(-c2ccc(C(F)(F)F)c(=O)n2C)c(=O)c1O [1-3, 4-hydroxy-5-methyl-2-(1-methyl-3-(trifluoromethyl)pyrid-2-on-6-yl)-pyridazin-3-one]
at least 80%: herbicidal activity in percent (efficacy) (Abutilon theophrasti) | herbicidal activity in percent (efficacy) (Amaranthus retroflexus [1]) | herbicidal activity in percent (efficacy) (Echinochloa crus galli [2]) | herbicidal activity in percent (efficacy) (Matricaria inodora [3]) | herbicidal activity in percent (efficacy) (Setaria viridis [4]) | herbicidal activity in percent (efficacy) (Stellaria media [5]) | herbicidal activity in percent (efficacy) (Veronica persica [6]) | herbicidal activity in percent (efficacy) (Viola tricolor [7]) | herbicidal action in percent (efficacy) (Amaranthus retroflexus [8]) | herbicidal action in percent (efficacy) (Echinochloa crus galli [9]) | herbicidal action in percent (efficacy) (Ipomoea purpurea) | herbicidal action in percent (efficacy) (Matricaria inodora [10]) | herbicidal action in percent (efficacy) (Setaria viridis [11]) | herbicidal action in percent (efficacy) (Stellaria media [12]) | herbicidal action in percent (efficacy) (Veronica persica [13]) | herbicidal action in percent (efficacy) (Viola tricolor [14])
